Patent publication US6784184B2, “5-(arylsulfonyl)-,5-(arylsulfinyl), and 5-(arylsulfanyl)-thiazolidine-2,4-diones useful for inhibition of farnesyl-protein transferase” (Wyeth Holdings Corporation, priority 2001, dated 2004)

Experiments:
FPTase (K-Ras substrate) = FPTase (K-Ras substrate) (UniProt P29702+P49355); test: in vitro FTase Inhibition Assay, K-Ras as substrate for farnesylation; format: biochemical; conditions: K-Ras used as substrate for farnesylation
Procedure: (§1) The ability of the compounds of this invention to inhibit FPTase was evaluated in the standard pharmacological in vitro test procedures described below.
(§2) Methods—1. […] 2. Solution #1 is added to FPTase reaction in a volume of […]. 3. Standard reaction mix, […], contains 50 mM Tris (7.5), […], 3 mM MgCl2, 20 mM KCl, 5 mM DTT, 0.2% octyl-B-glucoside, 1% DMSO, […], 10 ng FPTase, and various concentrations of FPTase inhibitors. 4. Incubate for 30-90 min at […] 5. Stop reactions with TCA/SDS (6%/2%), hold at 4° C. for 45-60 min. 6. Filter by manifold or 96 well plate, wash filter 3-5× with TCA (6%). 7. Add scintillant to filters, measure ^3H-FPP incorporation into Ras protein.
(§3) (cpm from precipitated Ras with test compounds)−(background cpm)×100=% inhibition.
(§4) (cpm from precipitated Ras without test compounds)−(background cpm)

FPTase (H-Ras substrate) = FPTase (H-Ras substrate) (UniProt P29702+P49355); test: in vitro FTase Inhibition Assay, H-Ras as substrate for farnesylation; format: biochemical; conditions: H-Ras used as substrate for farnesylation
Procedure: as §1, §2, §3, §4

Molecule	IC50 (FPTase (K-Ras substrate)) [nM]	IC50 (FPTase (H-Ras substrate)) [nM]
5-[5-(4-Chloro-2-methylphenyl)pent-4-ynyl]-5-(4-trifluoromethoxy-benzenesulfonyl)thiazolidine-2,4-dione [Example 140]	1000 to 3600	150 to 300
COc1ccc(S(=O)(=O)C2(CCCC#Cc3ccc(NC(=O)OC(C)(C)C)cc3C(F)(F)F)SC(=O)NC2=O)cc1 (stereo not shown) [Example 151, (4-{5-[5-(4-Methoxybenzenesulfonyl)-2,4-dioxothiazolidin-5-yl]pent-1-ynyl}-3-trifluoromethylphenyl)-carbamic Acid tert-Butyl Ester]	210 to 1000	530 to 700
Cc1ccc(C#CCCCC2(S(=O)(=O)c3ccc(I)cc3)SC(=O)NC2=O)c(C)c1 (stereo not shown) [Example 137, 5-[5-(2,4-Dimethylphenyl)pent-4-ynyl]-5-(4-iodobenzenesulfonyl)-thiazolidine-2,4-dione]	37 to 800	21 to 400
COc1ccc(S(=O)(=O)C2(CCCC#Cc3ccc(Cl)cc3)SC(=O)NC2=O)cc1 (stereo not shown) [Example 97, 5-[5-(4-Chlorophenyl)pent-4-ynyl]-5-(4-methoxyphenylsulfonyl)-thiazolidine-2,4-dione]	3500 to 5500	75 to 150
Cc1ccc(Cl)cc1C#CCCCC1(S(=O)(=O)c2ccc(OC(F)(F)F)cc2)SC(=O)NC1=O (stereo not shown) [Example 139, 5-[5-(5-Chloro-2-methylphenyl)pent-4-ynyl]-5-(4-trifluoromethoxybenzene-sulfonyl)thiazolidine-2,4-dione]	600 to 5000	140 to 170
COc1ccc(S(=O)(=O)C2(CCCC#Cc3ccc(C)cc3C)SC(=O)NC2=O)cc1 (stereo not shown) [Example 136, 5-[5-(2,4-Dimethylphenyl)pent-4-ynyl]-5-(4-methoxybenzenesulfonyl)-thiazolidine-2,4-dione]	1000 to 1900	43 to 50
COc1ccc(S(=O)(=O)C2(CCCC#Cc3ccc(C(F)(F)F)cc3)SC(=O)NC2=O)cc1 (stereo not shown) [Example 153, 5-(4-Methoxybenzenesulfonyl)-5-[5-(4-trifluoromethylphenyl)pent-4-ynyl]-thiazolidine-2,4-dione]	1000 to 6100	170 to 200
Cc1ccc(NC(=O)OC(C)(C)C)cc1C#CCCCC1(S(=O)(=O)c2ccc(I)cc2)SC(=O)NC1=O (stereo not shown) [Example 148, (3-{5-[5-(4-Iodobenzenesulfonyl)-2,4-dioxothiazolidin-5-yl]-pent-1-ynyl}-4-methylphenyl)carbamic Acid tert-Butyl Ester]	23 to 31	4.5 to 120
COc1ccc(S(=O)(=O)C2(CCCC#Cc3cc(NC(=O)Oc4ccc(Cl)cc4)ccc3C)SC(=O)NC2=O)cc1 (stereo not shown) [Example 177, (3-{5-[5-(4-Methoxybenzenesulfonyl)-2,4-dioxothiazolidin-5-yl]pent-1-ynyl}-4-methylphenyl)carbamic Acid 4-Chloro-phenyl Ester]	86 to 100	11 to 32
COc1ccc(S(=O)(=O)C2(CCCC#Cc3cccs3)SC(=O)NC2=O)cc1 (stereo not shown) [Example 166, 5-(4-Methoxybenzenesulfonyl)-5-(5-thiophen-2-yl-pent-4-ynyl)-thiazolidine-2,4-dione]	5300	150
Cc1ccc(C)c(C#CCCCC2(S(=O)(=O)c3ccc(I)cc3)SC(=O)NC2=O)c1 (stereo not shown) [Example 134, 5-[5-(2,5-Dimethylphenyl)pent-4-ynyl]-5-(4-iodobenzenesulfonyl)-thiazolidine-2,4-dione]	430 to 680	14 to 850
COc1ccc(S(=O)(=O)C2(CCCC#Cc3ccc(NC(=O)OC(C)(C)C)cc3)SC(=O)NC2=O)cc1 (stereo not shown) [Example 145, (4-{5-[5-(4-Methoxybenzensulfonyl)-2,4-dioxothiazolidin-5-yl]pent-1-ynyl}phenyl)carbamic Acid tert-Butyl Ester]	5600 to 10000	1200 to 1700
O=C1NC(=O)C(CCCC#Cc2ccc(Cl)cc2)(S(=O)(=O)c2cccc3cccnc23)S1 (stereo not shown) [Example 109, 5-[5-(4-Chlorophenyl)pent-4-ynyl]-5-(quinoline-8-sulfonyl)-thiazolidine-2,4-dione]	1400 to 2100	65 to 130
COc1ccc(S(=O)(=O)C2(CCCC#Cc3cc(NC(=O)OCc4ccc([N+](=O)[O-])cc4)ccc3C)SC(=O)NC2=O)cc1 (stereo not shown) [Example 176, (3-{5-[5-(4-Methoxybenzenesulfonyl)-2,4-dioxothiazolidin-5-yl]pent-1-ynyl}-4-methylphenyl)carbamic Acid 4-Nitro-Benzyl Ester]	30 to 320	3.2 to 32
CCCCOC(=O)Nc1ccc(C)c(C#CCCCC2(S(=O)(=O)c3ccc(OC)cc3)SC(=O)NC2=O)c1 (stereo not shown) [Example 181, (3-{5-[5-(4-Methoxybenzenesulfonyl)-2,4-dioxothiazolidin-5-yl]pent-1-ynyl}-4-methylphenyl)carbamic Acid Butyl Ester]	100 to 130	10 to 32
COc1ccc(S(=O)(=O)C2(CCCC#Cc3cc(NC(=O)OCC(C)C)ccc3C)SC(=O)N(C(=O)OCC(C)C)C2=O)cc1 (stereo not shown) [Example 232, Isobutyl 5-(5-{5-[(isobutoxycarbonyl)-amino]-2-methylphenyl}pent-4-ynyl)-5-[(4-methoxyphenyl)sulfonyl]-2,4-dioxo-1,3-thiazolidine-3-carboxylate]	40 to 640	5 to 10
5-[5-(4-Chloro-2-methylphenyl)-pent-4-ynyl]-5-(4-iodobenzene-sulfonyl)-thiazolidine-2,4-dione [Example 141]	300 to 340	21 to 32
CCCCOC(=O)Nc1ccc(C)c(C#CCCCC2(S(=O)(=O)c3ccc(OC)cc3)SC(=O)N(C(=O)OCCCC)C2=O)c1 (stereo not shown) [Example 231, Butyl 5-(5-{5-[(butoxycarbonyl)amino]-2-methylphenyl}pent-4-ynyl)-5-[(4-methoxy-phenyl)sulfonyl]-2,4-dioxo-1,3-thiazolidine-3-carboxylate]	100 to 1000	10 to 21
COC(=O)Nc1ccc(C)c(C#CCCCC2(S(=O)(=O)c3ccc(OC)cc3)SC(=O)NC2=O)c1 (stereo not shown) [Example 178, (3-{5-[5-(4-Methoxybenzenesulfonyl)-2,4-dioxothiazolidin-5-yl]pent-1-ynyl}-4-methylphenyl)carbamic Acid Methyl Ester]	10	17 to 32
O=C1NC(=O)C(CCCC#Cc2cc(Cl)ccc2Cl)(S(=O)(=O)c2ccc(I)cc2)S1 (stereo not shown) [Example 115, 5-[5-(2,5-Dichloro-phenyl)pent-4-ynyl]-5-(4-iodobenzenesulfonyl)-thiazolidine-2,4-dione]	160 to 230	12 to 320
COc1ccc(S(=O)(=O)C2(CCCC#Cc3cc(F)cc([N+](=O)[O-])c3)SC(=O)NC2=O)cc1 (stereo not shown) [Example 133, 5-[5-(3-Fluoro-5-nitrophenyl)pent-4-ynyl]-5-(4-methoxybenzene-sulfonyl)-thiazolidine-2,4-dione]	54 to 1000	40 to 200
O=C1NC(=O)C(CCCC#Cc2cccc([N+](=O)[O-])c2)(S(=O)(=O)c2ccc(Oc3ccccc3)cc2)S1 (stereo not shown) [Example 119, 5-[5-(3-Nitrophenyl)pent-4-ynyl]-5-(4-phenoxybenzenesulfonyl)-thiazolidine-2,4-dione]	1300 to 1700	130 to 140
Cc1ccc([N+](=O)[O-])cc1C#CCCCC1(S(=O)(=O)c2ccc(Oc3ccccc3)cc2)SC(=O)NC1=O (stereo not shown) [Example 124]	910 to 1300	52 to 80
